Entries after “also recorded” stand apart in the source; their conditions may differ.
Assays:
COX-2 = target: T1, COX-2 (Homo sapiens, UniProt P35354); test: Cell-based COX-2 activity assay in IL-1β-stimulated A549 cells; parameters: endogenous in cells; host or cells: A549 stimulated with 1 ng/ml IL-1β; details: 10 µM, 24 h, 1 ng/ml IL-1β
T1 sequence (P35354 18-604): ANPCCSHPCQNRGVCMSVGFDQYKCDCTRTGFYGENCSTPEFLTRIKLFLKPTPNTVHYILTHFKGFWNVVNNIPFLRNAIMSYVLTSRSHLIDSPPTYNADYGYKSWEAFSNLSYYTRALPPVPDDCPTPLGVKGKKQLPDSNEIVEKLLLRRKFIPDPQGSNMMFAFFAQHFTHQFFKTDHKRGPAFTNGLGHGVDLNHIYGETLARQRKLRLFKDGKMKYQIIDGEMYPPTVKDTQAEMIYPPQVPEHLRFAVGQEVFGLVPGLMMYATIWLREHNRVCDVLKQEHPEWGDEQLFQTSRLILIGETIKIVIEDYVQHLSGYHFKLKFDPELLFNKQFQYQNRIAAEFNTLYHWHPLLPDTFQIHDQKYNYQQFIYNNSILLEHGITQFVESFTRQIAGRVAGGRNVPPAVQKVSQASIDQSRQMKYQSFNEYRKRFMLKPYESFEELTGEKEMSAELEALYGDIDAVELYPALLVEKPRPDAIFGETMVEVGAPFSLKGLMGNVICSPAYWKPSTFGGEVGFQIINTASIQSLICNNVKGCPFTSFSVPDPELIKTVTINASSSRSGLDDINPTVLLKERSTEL
Method: The COX-2 inhibitory effects of NFA were investigated using a cell-based COX-2 activity assay performed using a Cyclooxygenase (COX) Activity Assay Kit (Fluorometric) from Abcam (Cambridge, UK; #ab204699). A549 cells (3 × 10^6) were seeded in 10-cm dishes and allowed to become adherent for 3 h. […] Then, cells were detached with a cell scraper and washed twice with 1× PBS before being resuspended in 100 µl lysis buffer (1× PBS containing 1% NP-40). The cells were incubated for 30 min with shaking on ice. After 3-min centrifugation at 12,000 ×g at 4°C, 20 µl supernatant was used for the COX activity assay. The assay was performed according to the manufacturer’s instructions in a white 96-well microplate with a clear bottom in duplicate. […] COX-2 activity was normalized to protein concentration.
Suppl. Figure 5: Effects of NFA on cellular COX-2 activity. COX-2 Activity of A549 cells […]
h. Cells were lysed, and COX-2 activity was measured using Cyclooxygenase (COX) Activity Assay Kit (Fluorometric) from Abcam. (A) NFA derivatives with different chain length. (B) NFA derivatives with different Michael acceptor position. Samples were normalized to protein concentration. Data are presented as mean + SD of n=4. COX, cyclooxygenase; DMSO, dimethyl sulfoxide NFA, nitro fatty acids .
(1 picture or pasted object on this page, not shown here)

PMNL = test: WST-1 viability assay in PMNL; type: cell-based, human; details: 20 µM, 2 h (data not shown)
Method: Cell viability was analyzed with the WST-1 assay based on the cleavage of the stable tetrazolium salt WST-1 by the mitochondrial reductase system. Cells were seeded in the appropriate densities in a clear 96-well plate and settled overnight at 37°C in 5% CO2. […] Cell viability was analyzed by adding 10 µl WST-1 solution (Roche, Basel, Switzerland) and subsequently incubating the cells at 37°C for another 30–40 min. Absorbance was measured at 450 nm with a control wavelength at 620 nm using a plate reader.
5-LO, the key enzyme in leukotriene biosynthesis, catalyzes the first steps in leukotriene formation from AA. Oxidation of AA by 5-LO leads to the formation of 5-hydroperoxyeicosatetraenoic acid (5-HPETE), which can further be converted to LTA4 or reduced to 5-HETE. In the next step, LTA4 is hydrolyzed by LTA4 hydrolase to produce LTB4. Moreover, 12- and 15-LO catalyze the formation of 12- and 15-H(P)ETE [12- and 15-hydro(per)oxyeicosatetraenoic acid]. Nitroalkylation of 5-LO cysteines 416 and 418 by NFA leads to enzyme inhibition and beneficial anti-inflammatory effects, whereas no impact has been observed on 12- and 15-LO so far ([Awwad et al., 2014]). 5-LO product formation of purified PMNL was triggered by incubation with 2.5 µM of the calcium ionophore A23187 in the presence of 20 µM AA. […] Shifting the nitro group from position 9 to 10, or rather, towards position 11 (18.11.11), led to a decreased impact on 15-LO product formation (Table 3). […] Therefore, 5-LO product formation of purified PMNL after treatment with A23187 was determined in absence of AA which should strongly increase the 5-LO-inhibitory potency of competitive inhibitors. However, IC50 values were similar under these conditions strengthening the hypothesis of NFA as presumably non-competitive 5-LO inhibitors. Using a WST-1 viability assay we assessed possible cytotoxic effects of the strongest 5-LO-inhibitory NFA derivatives in PMNL including 18.4.4, 18.5.5, 18.6.6, 18.7.7, 18.8.8, 18.8.9, 18.9.9, 18.9.10, 18.10.10, 20.9.9, and 22.9.9.

Compound | effect on COX-2 activity in IL-1β-stimulated A549 cells (COX-2) | cytotoxic effects in PMNL (WST-1 viability) (PMNL)
CCC=C(CCCCCCCC(=O)O)[N+](=O)[O-] [12.9.9, 9-nitro-dodec-9-enoic acid] | failed increasing COX-2 product formation | 
CCCCC=C(CCCCCCCC(=O)O)[N+](=O)[O-] [14.9.9, 9-nitro-tetradec-9-enoic acid] | failed increasing COX-2 product formation | 
CCCCCCC=C(CCCCCCCC(=O)O)[N+](=O)[O-] [16.9.9, 9-nitro-hexadec-9-enoic acid] | failed increasing COX-2 product formation | 
CCCCCCCCCCCCCC=C(CCC(=O)O)[N+](=O)[O-] [18.4.4, 4-nitro-octadec-4-enoic acid] |  | failed to induce significant cytotoxic effects
CCCCCCCCCCCCC=C(CCCC(=O)O)[N+](=O)[O-] [18.5.5, 5-nitro-octadec-5-enoic acid] |  | failed to induce significant cytotoxic effects
CCCCCCCCCCCC=C(CCCCC(=O)O)[N+](=O)[O-] [18.6.6, 6-nitro-octadec-6-enoic acid] | induced COX-2 activity | failed to induce significant cytotoxic effects
CCCCCCCCCCC=C(CCCCCC(=O)O)[N+](=O)[O-] [18.7.7, 7-nitro-octadec-7-enoic acid] |  | failed to induce significant cytotoxic effects
CCCCCCCCCC=C(CCCCCCC(=O)O)[N+](=O)[O-] [18.8.8, 8-nitro-octadec-8-enoic acid] | induced COX-2 activity | failed to induce significant cytotoxic effects
CCCCCCCCCC(=CCCCCCCC(=O)O)[N+](=O)[O-] [18.8.9, 9-nitro-octadec-8-enoic acid] |  | failed to induce significant cytotoxic effects
CCCCCCCCC=C(CCCCCCCC(=O)O)[N+](=O)[O-] [18.9.9, 9-nitro-octadec-9-enoic acid] | no COX-2 inhibition | failed to induce significant cytotoxic effects
CCCCCCCCC(=CCCCCCCCC(=O)O)[N+](=O)[O-] [18.9.10, 10-nitro-octadec-9-enoic acid] |  | failed to induce significant cytotoxic effects
CCCCCCCC=C(CCCCCCCCC(=O)O)[N+](=O)[O-] [18.10.10, 10-nitro-octadec-10-enoic acid] | slight COX-2 inhibition | failed to induce significant cytotoxic effects
CCCCCCCCCCC=C(CCCCCCCC(=O)O)[N+](=O)[O-] [20.9.9, 9-nitro-eicos-9-enoic acid] | no COX-2 inhibition; also recorded: increased COX-2 product formation | failed to induce significant cytotoxic effects

— publication PMC8637440, “Structural Modifications Yield Novel Insights Into the Intriguing Pharmacodynamic Potential of Anti-inflammatory Nitro-Fatty Acids” (Frontiers in Pharmacology, 2021)
